Data: ChEMBL document CHEMBL1833795, “Discovery of potent, metabolically stable purine CRF-1 antagonists with differentiated binding kinetic profiles” (Bioorg Med Chem Lett, 2011)

Key:
[1] = target: T1, Corticotropin-releasing factor receptor 1 (Homo sapiens, UniProt P34998); assay: Antagonist activity at recombinant human CRF1 receptor expressed in CHO cells assessed as inhibition of CRF-induced cAMP formation; format: functional, cell-based
T1 sequence (P34998 whole entry): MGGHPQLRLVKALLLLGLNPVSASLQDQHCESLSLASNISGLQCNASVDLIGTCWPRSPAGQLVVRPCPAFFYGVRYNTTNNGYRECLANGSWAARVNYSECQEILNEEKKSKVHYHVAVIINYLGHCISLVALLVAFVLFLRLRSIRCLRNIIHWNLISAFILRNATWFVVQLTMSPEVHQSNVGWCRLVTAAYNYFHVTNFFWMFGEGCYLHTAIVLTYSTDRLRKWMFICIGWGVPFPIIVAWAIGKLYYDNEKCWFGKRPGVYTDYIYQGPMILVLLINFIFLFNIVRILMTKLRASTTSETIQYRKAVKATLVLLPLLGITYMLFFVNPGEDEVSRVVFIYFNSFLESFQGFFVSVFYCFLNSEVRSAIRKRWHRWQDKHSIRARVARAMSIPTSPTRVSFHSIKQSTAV

[2] = target: T1, Corticotropin-releasing factor receptor 1; assay: Binding affinity to recombinant human CRF1 receptor expressed in CHO cells; format: cell-based
[3] = target: T2, Corticotropin-releasing factor receptor 1 (Homo sapiens) (UniProt P34998); conditions: CHO
T2 sequence (whole entry): T1 sequence (P34998 whole entry)
Description: Antagonist activity at recombinant human CRF1 receptor expressed in CHO cells assessed as dissociation half life

[4] = test system: Liver microsomes; assay: Intrinsic clearance in human liver microsomes assessed per mg of protein; format: ADME, Microsome
[5] = test system: Liver microsomes; assay: Intrinsic clearance in rat liver microsomes assessed per mg of protein; format: ADME, Microsome
[6] = Clearance in rat at 0.1 mg/kg; format: ADME, organism-based; design: dose 0.1 mg/kg; conditions: in vivo
[7] = Volume of distribution at steady state in rat at 0.1 mg/kg; format: ADME, organism-based; design: dose 0.1 mg/kg; conditions: in vivo, read-out: Vdss
[8] = Half life in rat at 0.1 mg/kg; format: ADME, organism-based; design: dose 0.1 mg/kg; conditions: in vivo
[9] = Oral bioavailability in rat at 8 mg/kg; format: ADME, organism-based; conditions: in vivo

Structure (SMILES) | Ki [1] [nM] | Kd [2] [nM] | T1/2 [3] [h] | clearance [4] [µL/min/mg] | clearance [5] [µL/min/mg] | clearance [6] [mL/min/kg] | Vd [7] [L/kg] | half-life [8] [h] | bioavailability [9] [%]
CCC(CC)Nc1cc(C)nc2c(-c3ccc(OC)cc3C)c(C)nn12 | 1.5 | 0.279 | 5.5 | – | – | – | – | – | –
COc1ccc(-n2ncc3c(NC(C4CC4)C4CC4)nc(C)nc32)c(C)c1 | 32 | – | – | < 11 | 25 | – | – | – | –
CCCN(CCC)c1cc(C)nc2c(-c3cnc(N(C)C)cc3C)c(C)nn12 | – | – | 12.8 | – | – | – | – | – | –
COc1cc(OC(F)F)ccc1-n1c(C)nc2c(NC(C3CC3)C3CC3)nc(C)nc21 | 0.291 | 0.291 | 10.7 | 19 | 38 | 9 | 8.2 | 10 | 52
Cc1nc(NC(C2CC2)C2CC2)c2nc(C)n(-c3ccc(OC(F)F)cc3F)c2n1 | 7 | – | – | – | – | – | – | – | –
Cc1nc(NC(C2CC2)C2CC2)c2nc(C)n(-c3ccc(C#N)cc3)c2n1 | 62 | – | – | 16 | 22 | – | – | – | –
COc1ccc(-n2c(C)nc3c(NC(C4CC4)C4CC4)nc(C)nc32)c(C)c1 | 14 | – | – | 10 | 37 | – | – | – | –
CCOc1ccc(-n2c(C)nc3c(NC(C4CC4)C4CC4)nc(C)nc32)cc1 | 20 | – | – | 16 | 29 | – | – | – | –
Cc1nc(NC(C2CC2)C2CC2)c2nc(C)n(-c3ccc(F)cc3)c2n1 | 91 | – | – | 15 | < 8.5 | – | – | – | –
Cc1nc(NC(C2CC2)C2CC2)c2nc(C)n(-c3ccc(OC(F)(F)F)cc3)c2n1 | 9 | – | – | 17 | 27 | – | – | – | –
COc1ccc(-n2c(CC3CC3)nc3c(NC(C4CC4)C4CC4)nc(C)nc32)cc1 | 308 | – | – | – | – | – | – | – | –
COc1ccc(-n2c(C)nc3c(NC(C4CC4)C4CC4)nc(C)nc32)c(Cl)c1 | 12 | – | – | – | – | – | – | – | –
Cc1nc(NC(C2CC2)C2CC2)c2nc(C)n(-c3ccc(OC(F)F)cc3Cl)c2n1 | 0.373 | 0.373 | 6.2 | 18 | 51 | 8 | 4.5 | 6.4 | –
COc1ccc(-n2c(C)nc3c(NC(C4CC4)C4CC4)nc(C)nc32)cc1 | 19 | 12 | 0.5 | < 10 | 20 | 4 | 2 | 2.7 | –
COc1ccc(-n2c(CC(C)C)nc3c(NC(C4CC4)C4CC4)nc(C)nc32)cc1 | 607 | – | – | – | – | – | – | – | –
COc1ccc(-n2c(C3CC(F)(F)C3)nc3c(NC(C4CC4)C4CC4)nc(C)nc32)cc1 | 261 | – | – | – | – | – | – | – | –
Cc1nc(NC(C2CC2)C2CC2)c2nc(C)n(-c3ccc(OC(F)F)cc3)c2n1 | 5 | 3 | 1 | 15 | 17 | 3 | 2 | 11 | –
COc1ccc(-n2c(C3CCCO3)nc3c(NC(C4CC4)C4CC4)nc(C)nc32)cc1 (racemic) | 867 | – | – | – | – | – | – | – | –
COCc1nc2c(NC(C3CC3)C3CC3)nc(C)nc2n1-c1ccc(OC)cc1 | 157 | – | – | – | – | – | – | – | –
COc1ccc(-n2cnc3c(NC(C4CC4)C4CC4)nc(C)nc32)c(C)c1 | 47 | – | – | 21 | 48 | – | – | – | –
CCCN(CCOC)c1nc(C)nc2c1c(C)nn2-c1ccc(OC)cc1C | – | 14 | 0.3 | 172 | 23 | – | – | – | –
Cc1nc(NC(C2CC2)C2CC2)c2nc(C)n(-c3ccc(Cl)cc3)c2n1 | 11 | – | – | 28 | < 8.5 | – | – | – | –
Cc1nc(NC(C2CC2)C2CC2)c2nc(C)n(-c3ccc(S(C)(=O)=O)cc3)c2n1 | 140 | – | – | < 9 | – | – | – | – | –
